Here are results for 18 compounds from patent publication US5140009A (Tap Pharmaceuticals, Inc., priority 1990, dated 1992).

The structures appear in SMILES notation. Numbered stars: 1 amine (or outer) side, 2 acyl side, 3 side chain; on linkers, the order of the positions; unused ones are H or OH. Square brackets hold non-standard residues; d marks the D form. Side chains are listed from the residue outwards. Peptide text beside a SMILES is read from it. * marks the point of attachment. Propanoyl(3-indol-3-yl) = O=C(CCc1c[nH]c2ccccc12)*; X8 = CN1CCN(S(=O)(=O)N[C@@H](Cc2ccccc2)C(=O)*)CC1; Propanoyl(3-(4-F-phenyl)) = O=C(CCc1ccc(F)cc1)*; Propanoyl(3-(4-Cl-Ph)) = O=C(CCc1ccc(Cl)cc1)*; Acetyl(1-naphthyl) = O=C(Cc1cccc2ccccc12)*; 1Nal = N[C@@H](Cc1cccc2ccccc12)C(=O)O; 2Nal = N[C@@H](Cc1ccc2ccccc2c1)C(=O)O; d1Nal = N[C@H](Cc1cccc2ccccc12)C(=O)O; d2Nal = N[C@H](Cc1ccc2ccccc2c1)C(=O)O; dLys(iPr) = CC(C)NCCCC[C@@H](N)C(=O)O; NMeY = CN[C@@H](Cc1ccc(O)cc1)C(=O)O; dBta = N[C@H](Cc1csc2ccccc12)C(=O)O; dCha = N[C@H](CC1CCCCC1)C(=O)O; NMeL = CN[C@@H](CC(C)C)C(=O)O; dNMeL = CN[C@H](CC(C)C)C(=O)O; Nicotinoyl = O=C(c1cccnc1)*; Morpholide = C1CN(*)CCO1; X4 = O=C(CCc1cccc(F)c1)*; X2 = O=C(C=Cc1ccccc1)*; CO = O=C([*:1])[*:2]; Bn = c1ccc(C*)cc1

The first experiment has as its target T1, LHRH receptors (Rattus norvegicus, UniProt P30969).
T1 construct: Pituitary membranes containing LHRH receptors are prepared in batches from quick-frozen rat pituitaries; tissue Hilltop Labs; host or cells: rat pituitary membranes
T1 sequence (P30969 1-327): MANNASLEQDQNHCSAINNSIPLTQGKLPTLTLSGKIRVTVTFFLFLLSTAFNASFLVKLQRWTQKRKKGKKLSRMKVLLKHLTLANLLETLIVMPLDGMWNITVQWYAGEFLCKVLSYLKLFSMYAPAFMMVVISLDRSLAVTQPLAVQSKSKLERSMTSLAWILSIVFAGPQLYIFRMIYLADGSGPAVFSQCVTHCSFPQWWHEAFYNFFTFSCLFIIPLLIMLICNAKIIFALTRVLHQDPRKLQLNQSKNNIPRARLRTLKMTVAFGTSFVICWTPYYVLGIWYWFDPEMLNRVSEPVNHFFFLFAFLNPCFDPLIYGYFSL
The experiment can be described thus: Receptor Binding (radioligand receptor binding assay). The conditions noted are these: table 3; rat pituitary membranes, radioiodinated [D-Leu^6 -des Gly^10 ]-LHRH ethyl amide 50 pM, 2 hours at 4° C.; read-out: Receptor Binding pkI (converted).
As to `CCNC(=O)[C@@H]1CCCN1C(=O)[C@H](CCCNC(=N)N)NC(=O)[C@H](CC(C)C)NC(=O)[C@@H](Cc1c[nH]c2ccccc12)NC(=O)[C@H](Cc1ccc(O)cc1)NC(=O)[C@H](CO)NC(=O)[C@H](Cc1c[nH]c2ccccc12)NC(=O)C=Cc1ccccc1` [Compound 62, (3-9)[N-Cinnamoyl-Trp^3 -D-Trp^6 -Pro^9 -NHEt]LHRH] (X2-WSY[dW]LRP-NHEt), the Ki is 10.5 nM.

As to `CCNC(=O)[C@@H]1CCCN1C(=O)[C@H](CCCN=C(N)N)NC(=O)[C@H](CC(C)C)NC(=O)[C@@H](Cc1c[nH]c2ccccc12)NC(=O)[C@H](Cc1ccc(O)cc1)NC(=O)[C@H](CO)NC(=O)[C@@H](Cc1ccc(O)cc1)NC(=O)CCc1ccc(Cl)cc1` [Compound 86, (3-9)[N-(3-(4-Chlorophenyl)propionyl)-D -Tyr^3 -D-Trp^6 -Pro^9 NHEt]LHRH] ({Propanoyl(3-(4-Cl-Ph))}-[dY]SY[dW]LRP-NHEt), the Ki is 0.0174 nM.

`CCNC(=O)[C@@H]1CCCN1C(=O)[C@H](CCCNC(=N)N)NC(=O)[C@H](CC(C)C)NC(=O)[C@@H](Cc1c[nH]c2ccccc12)NC(=O)[C@H](Cc1ccc(O)cc1)NC(=O)[C@H](CO)NC(=O)[C@H](Cc1ccc2ccccc2c1)NC(C)=O` [Compound 84, (3-9)[N-Ac-2-Nal^3 -D-Trp^6 -Pro^9 NHEt]LHRH] (Ac-[2Nal]SY[dW]LRP-NHEt): the Ki is 1.41 nM.

For `CCNC(=O)[C@@H]1CCCN1C(=O)[C@H](CCCN=C(N)N)NC(=O)[C@H](CC(C)C)NC(=O)[C@@H](Cc1c[nH]c2ccccc12)NC(=O)[C@H](Cc1ccc(O)cc1)NC(=O)[C@H](CO)NC(=O)[C@@H](Cc1c[nH]c2ccccc12)NC(=O)CCc1ccc(Cl)cc1` [Compound 85, (3 9)[N-(3-(4-Chlorophenyl)propionyl)-D-Trp^3,6 -Pro^9 NHEt]LHRH] ({Propanoyl(3-(4-Cl-Ph))}-[dW]SY[dW]LRP-NHEt), the Ki is 0.0741 nM.

`CCNC(=O)[C@@H]1CCCN1C(=O)[C@H](CCCNC(=N)N)NC(=O)[C@H](CC(C)C)NC(=O)[C@@H](Cc1c[nH]c2ccccc12)NC(=O)[C@H](Cc1ccc(O)cc1)NC(=O)[C@H](CO)NC(=O)[C@H](Cc1c[nH]c2ccccc12)NC(=O)[C@H](Cc1ccccc1)NS(=O)(=O)N1CCN(C)CC1` [Compound 129, N-(N-alpha-(N-Methylpiperazinosulfonyl))-Phe-Trp-Ser-Tyr -D-Trp-Leu-Arg-ProNHEt] (X8-WSY[dW]LRP-NHEt): the Ki was 1.86 nM.

Take `CCNC(=O)[C@@H]1CCCN1C(=O)[C@H](CCCNC(=N)N)NC(=O)[C@H](CC(C)C)NC(=O)[C@@H](Cc1c[nH]c2ccccc12)NC(=O)[C@H](Cc1ccc(O)cc1)NC(=O)[C@H](CO)NC(=O)[C@H](Cc1c[nH]c2ccccc12)NC(=O)[C@H](Cc1ccccc1)NC(C)=O` [Compound 72, N-Acetyl-Phe-Trp-Ser-Tyr-D-Trp-Leu-Arg-ProNHEt] (Ac-FWSY[dW]LRP-NHEt): the Ki was 0.166 nM.

Consider `CCNC(=O)[C@@H]1CCCN1C(=O)[C@H](CCCNC(=N)N)NC(=O)[C@H](CC(C)C)NC(=O)[C@@H](CC(C)C)N(C)C(=O)[C@H](Cc1ccc(O)cc1)NC(=O)[C@H](CO)NC(=O)CCc1c[nH]c2ccccc12` [Compound 58, N-(3-(3-Indole)propionyl)-Ser-Tyr-D-N-Me-Leu-Leu-Arg-Pro-NHEt] ({Propanoyl(3-indol-3-yl)}-SY[dNMeL]LRP-NHEt), for which the Ki was 22.4 nM.

As to `CCNC(=O)[C@@H]1CCCN1C(=O)[C@H](CCCNC(=N)N)NC(=O)[C@H](CC(C)C)NC(=O)[C@@H](CC1CCCCC1)NC(=O)[C@H](Cc1ccc(O)cc1)NC(=O)[C@H](COCc1ccccc1)NC(=O)Cc1cccc2ccccc12` [Compound 33, (4-9)[N-(1-Naphthylacetyl)-Ser^4 (OBzl)-D-Cha^6 -Pro^9 -NHEt]LHRH] ({Acetyl(1-naphthyl)}-S(Bn)Y[dCha]LRP-NHEt), the Ki is 13.8 nM.

For `CCNC(=O)[C@@H]1CCCN1C(=O)[C@H](CCCNC(=N)N)NC(=O)[C@H](CC(C)C)NC(=O)[C@@H](Cc1c[nH]c2ccccc12)NC(=O)[C@H](Cc1ccc(O)cc1)NC(=O)[C@H](CO)NC(=O)[C@H](Cc1c[nH]c2ccccc12)NC(=O)C(CC(=O)N1CCOCC1)Cc1cccc2ccccc12` (single isomer, unassigned) [Compound 130], the Ki is 0.275 nM.

For the compound `CCNC(=O)[C@@H]1CCCN1C(=O)[C@H](CCCN=C(N)N)NC(=O)[C@H](CC(C)C)NC(=O)[C@@H](CCCCNC(=O)c1cccnc1)NC(=O)[C@H](Cc1ccc(O)cc1)N(C)C(=O)[C@H](CO)NC(=O)[C@@H](Cc1c[nH]c2ccccc12)NC(=O)CCc1ccc(F)cc1` [Compound 122, N-(3-(4-Fluorophenyl)propionyl)-D-Trp-Ser-N-Me-Tyr-D -Lys(Nic)-Leu-Arg-ProNHEt] ({Propanoyl(3-(4-F-phenyl))}-[dW]S[NMeY][dK](Nicotinoyl)LRP-NHEt), the Ki is 0.00955 nM.

Staying with this experiment, now noted: table 4; rat pituitary membranes, radioligand 50 pM, 2 hours at 4° C.; read-out: Receptor Binding pkI (converted).
On to `CCNC(=O)[C@@H]1CCCN1C(=O)[C@H](CCCN=C(N)N)NC(=O)[C@H](CC(C)C)NC(=O)[C@@H](Cc1c[nH]c2ccccc12)NC(=O)[C@H](Cc1ccc(O)cc1)N(C)C(=O)[C@H](CO)NC(=O)[C@@H](Cc1c[nH]c2ccccc12)NC(=O)CCc1ccc(Cl)cc1` [Compound 156, (3-9)[N-(3-(4-Chlorophenyl)propionyl) -D-Trp^3,6 -NMeTyr^5 -Pro^9 NHEt]LHRH] ({Propanoyl(3-(4-Cl-Ph))}-[dW]S[NMeY][dW]LRP-NHEt), for which the Ki is 0.0692 nM.

As to `CC(C)C[C@H](NC(=O)[C@@H](CCCCNC(=O)N1CCOCC1)NC(=O)[C@H](Cc1ccc(O)cc1)N(C)C(=O)[C@H](CO)NC(=O)[C@@H](Cc1cccc2ccccc12)NC(=O)CCc1ccc(F)cc1)C(=O)N[C@@H](CCCNC(=N)N)C(=O)N1CCC[C@H]1C(=O)N[C@H](C)C(N)=O` [Compound 210, N-(3-(4-Fluorophenyl)propionyl)-D-1-Nal-Ser-NMeTyr-D-Lys(N-epsilon-morpholinecarbonyl)-Leu-Arg-Pro-D-AlaNH2] ({Propanoyl(3-(4-F-phenyl))}-[d1Nal]S[NMeY][dK]([CO-Morpholide])LRP[dA]-NH2), the Ki is 0.00891 nM.

With `CCNC(=O)[C@@H]1CCCN1C(=O)[C@H](CCCN=C(N)N)NC(=O)[C@H](CC(C)C)NC(=O)[C@@H](Cc1c[nH]c2ccccc12)NC(=O)[C@H](Cc1ccc(O)cc1)NC(=O)[C@H](CO)NC(=O)[C@@H](Cc1cccc2ccccc12)NC(=O)CCc1ccc(F)cc1` [Compound 145, (3-9)[N-(3-(4-Fluorophenyl)propionyl) -D-1-Nal^3 -D-Trp^6 -Pro^9 NHEt]LHRH] ({Propanoyl(3-(4-F-phenyl))}-[d1Nal]SY[dW]LRP-NHEt), the Ki is 0.0251 nM.

Take `CC(C)C[C@H](NC(=O)[C@@H](CCCCNC(C)C)NC(=O)[C@H](Cc1ccc(O)cc1)N(C)C(=O)[C@H](CO)NC(=O)[C@@H](Cc1csc2ccccc12)NC(=O)CCc1ccc(F)cc1)C(=O)N[C@@H](CCCNC(=N)N)C(=O)N1CCC[C@H]1C(=O)N[C@H](C)C(N)=O` [Compound 198, (3-10)[N-(3-(4-Fluorophenyl)propionyl)-D-3-Bal^3 -NMeTyr^5 -D-Lys^6 (N-epsilon-isopropyl)-D-Ala^10]LHRH] ({Propanoyl(3-(4-F-phenyl))}-[dBta]S[NMeY][dLys(iPr)]LRP[dA]-NH2): the Ki is 0.00933 nM.

Regarding `CCNC(=O)[C@@H]1CCCN1C(=O)[C@H](CCCNC(=N)N)NC(=O)[C@H](CC(C)C)NC(=O)[C@@H](Cc1c[nH]c2ccccc12)NC(=O)[C@H](Cc1ccc(O)cc1)N(C)C(=O)[C@H](CO)NC(=O)[C@H](Cc1cccc2ccccc12)NC(=O)CCc1ccc(F)cc1` [Compound 158, (3-9)[N-(3-(4-Fluorophenyl)propionyl) -1-Nal^3 -NMeTyr^5 -DTrp^6 -Pro^9 NHEt]LHRH] ({Propanoyl(3-(4-F-phenyl))}-[1Nal]S[NMeY][dW]LRP-NHEt), the Ki was 0.0174 nM.

For `CCNC(=O)[C@@H]1CCCN1C(=O)[C@H](CCCN=C(N)N)NC(=O)[C@H](CC(C)C)NC(=O)[C@@H](CCCCNC(=O)c1cccnc1)NC(=O)[C@H](Cc1ccc(O)cc1)N(C)C(=O)[C@H](CO)NC(=O)[C@@H](Cc1c[nH]c2ccccc12)NC(=O)CCc1cccc(F)c1` [Compound 153, (3-9)[N-(3-(3-Fluorophenyl)propionyl) -D-Trp^3 -NMeTyr^5 -D-Lys^6 (N-epsilon-nicotinyl)-Pro ^9 NHEt]LHRH] (X4-[dW]S[NMeY][dK](Nicotinoyl)LRP-NHEt), the Ki is 0.024 nM.

Consider `CC(C)C[C@H](NC(=O)[C@@H](CCCCNC(=O)c1cccnc1)NC(=O)[C@H](Cc1ccc(O)cc1)N(C)C(=O)[C@H](CO)NC(=O)[C@@H](Cc1ccc2ccccc2c1)NC(=O)CCc1ccc(F)cc1)C(=O)N[C@@H](CCCNC(=N)N)C(=O)N1CCC[C@H]1C(=O)N[C@H](C)C(N)=O` [Compound 187, (3-10)[N-(3-(4-Fluorophenyl)propionyl)-D-2-Nal^3 -NMeTyr^5 -D-Lys^6 (N-epsilon-nicotinyl)-D-Ala^10]LHRH] ({Propanoyl(3-(4-F-phenyl))}-[d2Nal]S[NMeY][dK](Nicotinoyl)LRP[dA]-NH2), for which the Ki is 0.0224 nM.

On to `CC(C)C[C@@H](C(=O)N[C@@H](CCCNC(=N)N)C(=O)N1CCC[C@H]1C(=O)N[C@H](C)C(N)=O)N(C)C(=O)[C@@H](CCCCN)NC(=O)[C@H](Cc1ccc(O)cc1)N(C)C(=O)[C@H](CO)NC(=O)[C@@H](Cc1cccc2ccccc12)NC(=O)CCc1ccc(F)cc1` [Compound 190, (3-10)[N-(3-(4-Fluorophenyl)propionyl)-D-1-Nal^3 -NMeTyr^5 -D-Lys^6 -NMeLeu^7 -D-Ala^10]LHRH] ({Propanoyl(3-(4-F-phenyl))}-[d1Nal]S[NMeY][dK][NMeL]RP[dA]-NH2), for which the Ki was 0.0158 nM.
